Laboratory results reported in PubChem BioAssay AID1845206 (Molecular Pharmacology Branch, DTP, NCI, 2023).

Tested on: NCI-H1618 multicellular tumor spheroid viability
Experiment: Anticancer human tumor NCI-H1618 cell line growth inhibition;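 further: spheroids exposed to agents for 7 days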
Settings: for IC50: curve of first compound; for viability, T/C: stronger effect = lower value
Procedure, shortened: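 Complex spheroids of malignant cells with endothelial cells and mesenchymal stem cells; agents alone or combined, from near clinical Cmax (or 10 microM if unknown) down in half-log steps, 0.25% DMSO final.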

[1] = second compound 30 pM, first compound 0.0316 µM
[2] = second compound 30 pM, first compound 0.1 µM
[3] = second compound 30 pM, first compound 0.316 µM
[4] = second compound 30 pM, first compound 1 µM
[5] = second compound 30 pM, first compound 3.16 µM
[6] = second compound 30 pM, first compound 10 µM
[7] = second compound 94.9 pM, first compound 0.0316 µM
[8] = second compound 94.9 pM, first compound 0.1 µM
[9] = second compound 94.9 pM, first compound 0.316 µM
[10] = second compound 94.9 pM, first compound 1 µM
[11] = second compound 94.9 pM, first compound 3.16 µM
[12] = second compound 94.9 pM, first compound 10 µM
[13] = second compound 0.0003 µM, first compound 0.0316 µM
[14] = second compound 0.0003 µM, first compound 0.1 µM
[15] = second compound 0.0003 µM, first compound 0.316 µM
[16] = second compound 0.0003 µM, first compound 1 µM
[17] = second compound 0.0003 µM, first compound 3.16 µM
[18] = second compound 0.0003 µM, first compound 10 µM
[19] = second compound 0.000949 µM, first compound 0.0316 µM
[20] = second compound 0.000949 µM, first compound 0.1 µM
[21] = second compound 0.000949 µM, first compound 0.316 µM
[22] = second compound 0.000949 µM, first compound 1 µM
[23] = second compound 0.000949 µM, first compound 3.16 µM
[24] = second compound 0.000949 µM, first compound 10 µM
[25] = second compound 0.003 µM, first compound 0.0316 µM
[26] = second compound 0.003 µM, first compound 0.1 µM
[27] = second compound 0.003 µM, first compound 0.316 µM
[28] = second compound 0.003 µM, first compound 1 µM
[29] = second compound 0.003 µM, first compound 3.16 µM
[30] = second compound 0.003 µM, first compound 10 µM

SMILES	IC50 (second compound 30 pM)	IC50 (second compound 94.9 pM)	IC50 (second compound 0.0003 µM)	IC50 (second compound 0.000949 µM)	IC50 (second compound 0.003 µM)	viability, T/C [1]	viability, T/C [2]	viability, T/C [3]	viability, T/C [4]	viability, T/C [5]	viability, T/C [6]	viability, T/C [7]	viability, T/C [8]	viability, T/C [9]	viability, T/C [10]	viability, T/C [11]	viability, T/C [12]	viability, T/C [13]	viability, T/C [14]	viability, T/C [15]	other results
CC(C)n1c(=O)n(C)c2cnc3cc(F)c(-c4ccc(OCCCN5CCCCC5)nc4)cc3c21 + COc1cc2c(cc1O)CCNC21CSC2c3c(OC(C)=O)c(C)c4c(c3C(COC1=O)N1C(O)C3Cc5cc(C)c(OC)c(O)c5C(C21)N3C)OCO4	7.23 µM	< 0.0316 µM	< 0.0316 µM	< 0.0316 µM	< 0.0316 µM	98.6%	66.3%	83%	103%	70%	42.2%	46.2%	13.4%	36.4%	42.7%	34.5%	15.9%	3.13%	2.8%	4.96%	viability, T/C [16]: 7.62%; viability, T/C [17]: 9.67%; viability, T/C [18]: 7.88%; viability, T/C [19]: 5.33%; viability, T/C [20]: 5.23%; viability, T/C [21]: 5.71%; viability, T/C [22]: 5.14%; viability, T/C [23]: 5.57%; viability, T/C [24]: 8.28%; viability, T/C [25]: 5.09%; viability, T/C [26]: 4.6%; viability, T/C [27]: 4.56%; viability, T/C [28]: 5.67%; viability, T/C [29]: 3.66%; viability, T/C [30]: 5.04%
COc1ccc([C@@H](O)c2cc(-c3ncnc4cc(N5CCOCC5)ccc34)c(F)cc2Cl)nn1 + COc1cc2c(cc1O)CCNC21CSC2c3c(OC(C)=O)c(C)c4c(c3C(COC1=O)N1C(O)C3Cc5cc(C)c(OC)c(O)c5C(C21)N3C)OCO4	3.72 µM	1.45 µM	< 0.0316 µM	< 0.0316 µM	< 0.0316 µM	94.5%	103%	104%	97.6%	55.8%	15%	75.4%	82.7%	55.5%	65.7%	32.6%	3.93%	14.8%	29.8%	13.9%	viability, T/C [16]: 3.02%; viability, T/C [17]: 3.64%; viability, T/C [18]: 0.49%; viability, T/C [19]: 4.34%; viability, T/C [20]: 4.36%; viability, T/C [21]: 3.33%; viability, T/C [22]: 3.78%; viability, T/C [23]: 5.45%; viability, T/C [24]: 0.45%; viability, T/C [25]: 2.98%; viability, T/C [26]: 4.77%; viability, T/C [27]: 4.99%; viability, T/C [28]: 3.43%; viability, T/C [29]: 2.67%; viability, T/C [30]: 1.04%
